Results as given in patent US20160011176A1, “METHOD AND DEVICE FOR EXAMINING MYOCARDIAL TOXICITY AND EVALUATING CARDIOMYOCYTES” (NATIONAL UNIVERSITY CORPORATION TOKYO MEDICAL AND DENTAL …, priority 2012, published 2016).

How the values were obtained:
cardiomyocyte network [1] = assay: Excitation conduction transmitting through a linearly arranged cardiomyocyte network (transmission time, its fluctuation, FPD, STVFPD); format: cell-based
From the text: FIGS. 65a, b schematically show an example of a method of such measurement of excitation conduction transmitting through a cardiomyocyte network. […] Arranged on a bottom surface of each cell housing on a substrate surface are respective electrodes (about 8 μm in diameter) for measurements of cellular potential, and from each of the electrodes, respective lead lines are extended. A single cardiomyocyte is received in each of the cell housings.
Specifically, in order to measure the temporal variation in the excitation conduction transmitting through the cellular population, an ignition peak of depolarization excited by an initial excitation conduction of each cell or each local point is measured, and at the same time, an ignition peak of an initial depolarization based on excitation conduction in another local area of adjacent another cell or adjacent another cellular population is measured; then a variation of a transmission rate or a transmission elapsed time is measured with respect to the distance between the two measurement points; and then the level of fluctuation of the transmission is quantitatively measured. Generally, the initial peak based on the excitation conduction is deemed to be a sodium spike. Thus, in view of this, the measurements of the initial ignition peak based on the excitation conduction are equivalent to the measurements of the sodium spikes. For example, where a drug with a big risk of proarrhlythmia is used, an increase in the fluctuation is utilized for the measurements. Here, the following are required: (1) a network of a plurality of cardiomyocytes is formed; (2) there is a means for accurately measuring the transmission delay time by measuring respective cellular potential wave form at two or more spatially different points within the network, and simultaneously accurately measuring the time of depolarization ignition spikes excited by the initial excitation conduction of the wave form; (3) in the case where a forced pulsation is provided, three or more electrodes are used to measure time required for transmission of the pulsation between respective electrodes at other measurement electrodes using the electrodes at both ends as stimulation electrodes, enabling measurements of temporal fluctuation of transmission rate or transmission time between the electrodes. As for the fluctuation, the STV as shown in Equation 3 in FIG. 24(c), for example, can be used for quantification. Here, Delayn and Delayn+1 (FIG. 65) can substitute for Vn and Vn+1. For transmission, when velocity is used, respective velocities can substitute for Delayn and Delayn+1. […] Thus, the transmission time will be measured as an extremely shorter transmission time than a transmission delay measured normally between adjacent electrodes. […]

cardiomyocyte network [2] = assay: Simultaneous measurement of extracellular potential (FP) and contractile force (optical imaging) in a cardiomyocyte network; format: cell-based
From the text: FIG. 43 is a schematic diagram showing an example of a system configuration of the present invention to simultaneously measure the mechanical properties and electrical properties of cardiomyocytes. The present system includes (1) a cellular network chip that can be used for culturing a cell population, includes a plurality of micro-electrodes disposed on a substrate and can be used for acquiring cellular potential data of a small area of the population; (2) a chip mounter for mounting the chip and joining electrically with cell-stimulating and/or cellular potential measuring system; (3) an environmental control vessel which can be used to control the environment such as temperature, humidity, oxygen concentration and carbon dioxide concentration of the cell population being cultured; (4) a micro multi-electrode potential measurement system that can give stimulation to a specific cell of a cardiomyocyte population, and allows simultaneous continuous measurements of cellular potentials of various small areas in the cell population; (5) one or more position-coordinate probe microparticles configured to measure changes in shape of myocardial cells and allow easy identification of cardiomyocytes using a plastic, polymer, glass or metal microparticles such as polystyrene microparticles, glass microparticles or gold microparticles of sizes from at minimum about 0.1, 0.2 μm, 0.3 μm, 0.4 μm, 0.5 μm, 0.6 μm, 0.7 μm, or preferably about 0.8 μm, more preferably about 0.9 μm, or most preferably about 1 μm to at most about 500 μm, 400 μm, 300 μm, preferably about 200 μm, more preferably about 100 μm or most preferably about 50 μm, wherein the particles are disposed in the cell population by mixing them on the surface of the cardiomyocyte population in the cell network chip or in the cell population and culturing them; (6) an optical image capturing system for optically measuring the microparticles, wherein the system includes a light source, an optical microscope and an image-capturing camera to capture the images of the microparticles; and (7) a computer system for image analysis, cellular potential analysis, stimulus control and/or integrated data acquisition, wherein the system is capable of measurements of cellular potential and analysis of waveforms of the potential, measurements of cell displacements by image analysis and feedback stimulation based on the analysis results. In the measurements using the device system, as for the stimulus to cause depolarization of the myocardial cells, the stimulus can be provided by selecting mainly from three means, i.e., (A) measurements using conduction of autonomous pulsation of the cardiomyocyte population, (B) measurements of conduction by providing a forced electrical stimulation from outside to a specific cell in the cardiomyocyte population and (C) measurements of conduction by providing a feed-back stimulus at a specific timing to meet the relationship of the delay time and the value of the cellular potential based on the cell voltage measured data to the specific cells in the cardiomyocyte population.
FIG. 44 is an example of a data acquisition monitor screen showing an example of data obtained from an example of a system configuration of the present invention to simultaneously measure the mechanical properties and the electrical properties of cardiomyocytes. In a setting of this example, a large number of polystyrene microparticles are placed on the surface of the cardiomyocyte population, a probe-particle displacement-observation window for five of the polystyrene microparticles selected as probes is set, and the center of gravity of the window moves with the movement of the microparticles in the window, thereby displacement of the particular probe microparticles can be measured continuously as a change in vector time in the directions of the X-axis and Y-axis. […]

Row | Compound | fluctuation of FPD (STVFPD) (cardiomyocyte network [1]; FIG. 66e) | FPD (as indicator of toxicity) (cardiomyocyte network [1]; FIG. 66d) | fluctuation of time required for transmission (cardiomyocyte network [1]; concentration over 1 μM) | transmission rate between adjacent electrodes (relative to no drug) (cardiomyocyte network [1]; concentration over 1 μM) | angle fluctuation against a decrease in contractile force (cardiomyocyte network [2]; 10 nM) | angle fluctuation (contraction direction) (cardiomyocyte network [2]; 100 nM) | contractile forces (time variation) (cardiomyocyte network [2]; 100 nM) | electrical firing of excitatory conduction of cells (cardiomyocyte network [2]; 100 nM) | electrophysiological excitation (cardiomyocyte network [2]; 1000 nM) | mechanical contraction (cardiomyocyte network [2]; 1000 nM)
1 | CC(C)(C)c1ccc(C(O)CCCN2CCC(C(O)(c3ccccc3)c3ccccc3)CC2)cc1 (stereo not shown) [terfenadine] | barely recognizable | is not seen | increases | suddenly decreased | – | – | – | – | – | –
2 | COc1ccc(CCN(C)CCCC(C#N)(c2ccc(OC)c(OC)c2)C(C)C)cc1OC (stereo not shown) [verapamil] | – | – | – | – | barely increases | rapid fluctuation of contractile direction in the angular direction | disappear rapidly | is maintained | does not occur | does not occur
